According to PubChem BioAssay (NCI):
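Interpolation was linear, between the two tested concentrations surrounding the appropriate level; five concentrations were tested over 48 hours in 96-well plates. The concentration for 50% growth inhibition is given as GI50. TGI marks complete inhibition of growth.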

Columns and labels:
Assay in all cases: NCI anticancer screen, dose series, 48 h
[1] = tested on: MDA-MB-231 breast
[2] = tested on: SK-MEL-5 melanoma
[3] = tested on: COLO 205 colon
[4] = tested on: LOX IMVI melanoma
[5] = tested on: DU-145 prostate
[6] = tested on: NCI-H522 lung
[7] = tested on: SR leukemia
[8] = tested on: SN12C renal
[9] = tested on: MCF7 breast
[10] = tested on: HT29 colon

Compound | GI50 [1] | TGI [1] | GI50 [2] | TGI [2] | GI50 [3] | TGI [3] | GI50 [4] | TGI [4] | GI50 [5] | TGI [5] | GI50 [6] | TGI [6] | GI50 [7] | TGI [7] | GI50 [8] | TGI [8] | GI50 [9] | TGI [9] | GI50 [10] | TGI [10]
COc1ccc2c(Nc3ccc(NS(C)(=O)=O)cc3)c3ccccc3nc2c1 | 1.52 µM | 6.65 µM | 0.526 µM | 1.89 µM | 0.384 µM | 1.58 µM | 0.285 µM | 2.34 µM | 0.315 µM | 6.46 µM | 0.304 µM | 1.84 µM | 0.112 µM | 6.46 µM | 0.487 µM | 13.2 µM | 0.3 µM | 1.99 µM | 0.326 µM | 1.58 µM
COc1cc(/C=C2\CC3C4CC=C5C[C@@H](OC(C)=O)CC[C@]5(C)C4CC[C@]3(C)C2=O)ccc1OCCCn1ccnc1 (some centres not stated) | 8.05 µM | 15.4 µM | 9.39 µM | 21.5 µM | 20.7 µM | > 50 µM | 8.63 µM | 15.5 µM | 1.31 µM | 10.2 µM | 19 µM | > 50 µM | – | – | 8.99 µM | 16.6 µM | 9.36 µM | 21 µM | 16 µM | > 50 µM
NC(=O)c1cc(Br)cc(C2CCCCC2)c1O | 12.1 µM | 25.3 µM | 15.1 µM | 28.9 µM | 16.5 µM | 31.1 µM | 13.2 µM | 26 µM | 12.3 µM | 24.9 µM | – | – | 14.2 µM | 34.6 µM | 12.2 µM | 25.1 µM | 15.8 µM | 30.8 µM | 16.8 µM | 32 µM
COC1CC2C=C(C)/C=C/C=C/C(=O)NC(c3ccccc3)C/C=C/CCC(O)CC(=O)C2=C1O (configuration not stated) | 0.27 µM | 0.961 µM | – | – | 0.159 µM | 0.315 µM | 0.297 µM | 1.22 µM | 0.405 µM | 1.57 µM | 0.211 µM | 0.693 µM | 0.0956 µM | 0.794 µM | 0.227 µM | 1.11 µM | 0.169 µM | 0.776 µM | 0.238 µM | 0.854 µM
ClC(Cl)c1nc(-c2cccnc2)n2nc(-c3ccccc3)cc2n1 | 1.98 µM | 5.07 µM | – | – | 0.592 µM | 2.39 µM | – | – | 0.554 µM | 3.14 µM | 1.67 µM | 6.03 µM | 0.348 µM | > 100 µM | – | – | – | – | – | –
OCC1OC(n2ccc3c(NO)ncnc32)C(O)C1O (configuration not stated) | 0.233 µM | – | 0.171 µM | 0.325 µM | 0.114 µM | 0.617 µM | 0.0665 µM | 1.27 µM | 0.111 µM | 0.702 µM | 0.188 µM | 0.718 µM | – | – | 0.212 µM | 1.61 µM | 0.13 µM | 1.68 µM | 0.13 µM | 0.94 µM
C1CSCCCSCCSCCCSC1 | – | > 100 µM | – | > 100 µM | – | > 100 µM | – | > 100 µM | – | > 100 µM | – | > 100 µM | – | – | – | > 100 µM | – | > 100 µM | – | > 100 µM
Cn1ncc2c(N)nc(N3CCCCC3)nc21 | – | – | 18.4 µM | 33.8 µM | 19.7 µM | 51.4 µM | 22.7 µM | 51.4 µM | 19.2 µM | 74.7 µM | 23 µM | 63.9 µM | – | – | 28.5 µM | 75.2 µM | 17.1 µM | 39.9 µM | 22.5 µM | 68.6 µM
CCOC(=O)c1[nH]c(-c2ccc(Cl)cc2)cc1-c1cccnc1 | 1.67 µM | > 100 µM | 0.401 µM | > 100 µM | 0.398 µM | 7.49 µM | 0.659 µM | > 100 µM | 1.88 µM | > 100 µM | – | – | – | – | 1.44 µM | > 100 µM | 0.453 µM | > 100 µM | 0.35 µM | > 100 µM
O=C(c1ccc2ncc(-c3nc(NC4CC4)ncc3F)n2c1)N1CCOCC1 | 2.4 µM | 8.98 µM | 2.6 µM | 8.53 µM | – | – | 1.11 µM | 41.4 µM | 2.68 µM | > 100 µM | 1.99 µM | 7.41 µM | 0.513 µM | 4.15 µM | 2.52 µM | 11.8 µM | 2.71 µM | 11 µM | 2.22 µM | 13.1 µM
CC(C)(C)NCc1cc(C(C)(C)C)cc(-c2ccc(Cl)cc2)c1O | – | 24.8 µM | – | 29.7 µM | – | 23.8 µM | – | – | – | 24.7 µM | – | 24.8 µM | – | 40.4 µM | – | 30.3 µM | – | 32.7 µM | – | 53.2 µM
COc1ccc(-c2cc(/C=C3\C(=O)Nc4ccc(Cl)cc43)[nH]n2)cc1 | 3.58 µM | 15.5 µM | 5.17 µM | 23.6 µM | 2.08 µM | 4.7 µM | – | – | 3.89 µM | 13.6 µM | 2.03 µM | 5.67 µM | 4.24 µM | 20.1 µM | 5.51 µM | 18.2 µM | 2.43 µM | 11.8 µM | 3.35 µM | 10.9 µM
O=C(Nc1ccc(Cl)cc1)c1ccc(NC2=C(Cl)C(=O)N(Cc3ccccc3)C2=O)cc1 | 13.9 µM | 38.1 µM | 31.1 µM | 99.3 µM | 30.3 µM | > 100 µM | 12.7 µM | 32.7 µM | 14.4 µM | 38.6 µM | 8.55 µM | 30.7 µM | – | – | 7.67 µM | 25.1 µM | 15.3 µM | 33.8 µM | 20 µM | > 100 µM
COC1OC(CO)C(O)C(O)C1Br (configuration not stated) | – | – | – | > 100 µM | – | > 100 µM | – | > 100 µM | – | – | – | > 100 µM | – | > 100 µM | – | > 100 µM | – | – | – | > 100 µM
COc1cccc(C(=O)N2CCc3ccccc32)c1OC | – | – | – | > 100 µM | – | > 100 µM | – | > 100 µM | – | – | – | > 100 µM | – | > 100 µM | – | > 100 µM | – | – | – | > 100 µM
O=C1C[C@@H]2C(COC(=O)c3ccccc3)N(OCc3ccccc3)C[C@@H]2O1 (some centres not stated) | – | – | – | > 100 µM | – | > 100 µM | – | > 100 µM | – | – | – | > 100 µM | – | > 100 µM | – | > 100 µM | – | – | – | > 100 µM
O=S(=O)(NCC1CCC(CNc2ccc(Cl)cc2)CC1)c1ccc(-c2ccccc2)cc1 (configuration not stated) | 15.7 µM | > 50 µM | 15.9 µM | > 50 µM | > 50 µM | > 50 µM | 45.7 µM | > 50 µM | > 50 µM | > 50 µM | > 50 µM | > 50 µM | > 50 µM | > 50 µM | > 50 µM | > 50 µM | > 50 µM | > 50 µM | – | –
NC1CCN(c2nc(Nc3cccc(C(F)(F)F)c3)c3c(=O)[nH]ccc3n2)CC1 | 2 µM | 3.6 µM | 1.54 µM | 2.9 µM | 1.4 µM | 2.82 µM | 1.33 µM | 2.72 µM | – | – | 1.76 µM | 3.57 µM | 0.774 µM | 2.82 µM | 1.37 µM | 2.8 µM | 1.35 µM | 3.02 µM | 1.17 µM | 4.89 µM
Cc1nc2ccc(Nc3nc(NCCN4CCOCC4)nc(Nc4ccc(F)cc4)n3)cc2n1Cc1ccccc1 | 1.71 µM | 3.71 µM | 1.63 µM | 2.98 µM | 1.62 µM | 3.13 µM | – | – | 5.56 µM | 71.6 µM | 2.92 µM | 9.48 µM | 1.46 µM | 5.23 µM | 5.57 µM | > 100 µM | 2.46 µM | 11.7 µM | – | –
O=C(Nc1nc2ccccc2n1Cc1ccccc1)NC12CC3CC(CC(C3)C1)C2 | – | – | – | > 100 µM | – | > 100 µM | – | > 100 µM | – | – | – | > 100 µM | – | > 100 µM | – | > 100 µM | – | – | – | > 100 µM
CC(=O)OCCOCNC(=S)N/N=C(\C)c1cnc2ccccc2n1 | – | – | – | > 100 µM | – | 36.9 µM | – | > 100 µM | – | – | – | 76.7 µM | – | > 100 µM | – | > 100 µM | – | – | – | > 100 µM
COc1cc2c3c(n(CCCNCCN)c(=O)c2cc1OC)-c1cc2c(cc1C3=O)OCO2 | 0.343 µM | 2.48 µM | 0.978 µM | 6.77 µM | > 100 µM | > 100 µM | 0.0299 µM | 0.244 µM | 0.556 µM | 3.41 µM | 0.245 µM | 2.29 µM | – | – | 0.351 µM | 4.35 µM | 0.616 µM | > 100 µM | 1.08 µM | 10.4 µM
Clc1ccc2[nH]cc(-c3nc(-c4c[nH]c5ncccc45)cs3)c2c1 | 2.2 µM | 17.1 µM | 2.98 µM | 12.5 µM | 1.73 µM | 13.3 µM | 2.71 µM | 12.1 µM | 4.23 µM | 21.4 µM | 2.73 µM | 13.7 µM | – | – | 4.78 µM | 20.9 µM | 2.46 µM | 16.5 µM | – | –
CN(C)N1C(=O)c2ccccc2NC1c1ccccc1 (configuration not stated) | – | > 100 µM | – | > 100 µM | – | > 100 µM | – | > 100 µM | – | > 100 µM | – | > 100 µM | – | – | – | > 100 µM | – | > 100 µM | – | > 100 µM
CC(=O)O[C@H]1CC[C@@]2(C)C(=CC[C@H]3C4=CC=C(C(C)=O)[C@@]4(C)CCC32)C1 (some centres not stated) | – | – | – | 40.3 µM | – | 39.6 µM | – | 43.8 µM | – | – | – | 46.1 µM | – | 81 µM | – | > 100 µM | – | – | – | > 100 µM
